Tested on: GDM-1 (leukemia)
Experiment: MTT tumor cell growth assay
Type: cell-based
Details: GDM-1 (FIG. 3J); 10 μM
Procedure: In one study, adherent cells were plated approximately 16-24 hours before the day of the experiment in 180 μl growth media. On the day of the experiment, the plated adherent cells were analyzed and counted and suspension cells were plated in 180 μl growth media. 10× lansoprazole compounds and vehicle was prepared. The 10× lansoprazole compounds were prepared by diluting lansoprazole to final concentrations of 100 μM, 30 μM, 10 μM, 3 μM, and 1 μM. A vehicle was prepared by preparing a solution of PBS, equivalent to the volume used for 10 μM lansoprazole wherein the 1× solution constitutes ˜0.06% PBS. 10 μl of the various 10× lansoprazole solutions and the vehicle were added to the cells. The cells were incubated at 37° C., 5% CO2 for 48 hours. The media was then aspirated. The cell suspension was then spun at 1500 RPM for 10 minutes. The media was slowly removed. 200 μl of MTT solution was added to each well with a concentration of 0.863 mg/ml MTT in the growth media. The cells were incubated at 37° C., 5% CO2 for 4 hours and the medium is then aspirated. The plate containing the cell suspension was then spun at 1500 RPM for 10 minutes. The media was slowly removed using a multichannel pipettor. 100 μl of DMSO was then added to each well. The cells were incubated at 37° C., 5% CO2 for 5 minutes and the absorbance was obtained at 560 nm using a Dynex Opsys MR plate reader. The cells used for this procedure were the following cell lines: IGROV1 (ovarian cancer); OVCAR 8 (ovarian cancer); ES-2 (ovarian cancer); CAOV3 (ovarian cancer); OVCAR5 (ovarian cancer); SUDHL4 (lymphoma); RPMI8226 (myeloma); RPMI6666 (Hodgkin's lymphoma); NC37 (lymphoma); GDM-1 (leukemia); MC/CAR (prostate cancer); DU-145 (prostate cancer), J45-01 (leukemia), MOLT3 (leukemia), HUT78, J-gamma-1 (leukemia), MCF7 […], COL0205 (colon cancer), HL60 CLONE 15 (leukemia), T47D (breast cancer), P116 (intestinal cancer), KU812 (leukemia), SW620 (colon cancer), MK92-M1 (lymphoma), MV-4-11 (leukemia), HS578T (breast cancer), HT29 (colon cancer), HCT 116 (colon cancer), CAKI-1 (kidney cancer), A549 (lung cancer), H460 (lung cancer), A3 (colon cancer), MDA-MB231 […], MALME 3M (melanoma), RXF393 (kidney cancer), RS4.11 (leukemia), PC3 (prostate cancer), OVCAR3 (ovarian cancer), MDA-MB435 (melanoma), HUT102 (lymphoma), HL60 (leukemia), CCRF-CEM (leukemia), HUT78 (lymphoma), 786-O (kidney cancer), ACHN (kidney cancer), A498 (kidney cancer), H226 (lung cancer), H522 (lung cancer), HOP92 (lung cancer), SNB 19 (brain cancer), OVCAR4 (ovarian cancer), H9 (lymphoma), UO-31 (kidney cancer), HH (lymphoma), DAUDI (leukemia), LOXIMVI (melanoma), NAMALWA (lymphoma), EKVX (lung cancer), DOHH2 (lymphoma), SNB75 (brain cancer), SKMEL28 (melanoma), SKMEL5 (melanoma), SKMEL2 (melanoma), M14 (melanoma), UACC 257 (melanoma), H332M (lung cancer), KM12 (colon cancer), HCC2998 (colon cancer), G401 (kidney cancer), RS1184 (lymphoma), MC116 (leukemia), MOLT4 (leukemia), JM1 (liver cancer), HOP-62 (lung cancer), HCT-15 (colon cancer), SF-539 (brain cancer), SF295 (brain cancer), ST486 (lymphoma), U251 (brain cancer), and UACC-62 (melanoma).
Experiments, as described in Example I were conducted with lansoprazole, omeprazole and SCH 28080 at concentrations of 1 μM, 10 μM, and 100 μM. FIGS. 3A-3K show the experimental results when tumor cells from the following cell lines were treated with lansoprazole, omeprazole, and SCH 28080: IGROV1 (FIG. 3A), OVCAR8 (FIG. 3B), ES-2 (FIG. 3C), CAOV3 (FIG. 3D), OVCAR5 (FIG. 3E), SUDHL4 (FIG. 3F), RPMI8226 (FIG. 3G), RPMI6666 (FIG. 3H), NC37 (FIG. 3I), GDM-1 (FIG. 3J), and MC/CAR (FIG. 3K).

Compound: Cc1nc2c(OCc3ccccc3)cccn2c1CC#N [SCH28080, SCH 28080]
- reducing tumor cell growth: effective in reducing tumor cell growth

— patent US20100184807A1, “Methods to inhibit tumor cell growth by using proton pump inhibitors” (Bio-Quant, Inc., priority 2008, published 2010)
